We go through one compound from publication PMC8152350, “High cytotoxicity of betulin towards fish and murine fibroblasts: Is betulin safe for nonneoplastic cells?” (BMC Veterinary Research, 2021).

The nature of data set [1]: MTT assay (mitochondrial activity), fish fibroblasts. It is filed as cell-based, bluegill. To be noted: bluegill, BF-2 caudal trunk fibroblasts, mean ± SD, n = 3. The method, then: (§1) BF-2 (ATCC CCL-91) bluegill caudal trunk fibroblasts were grown in minimum essential medium (Eagle, EBSS) supplemented with 1 % nonessential amino acids (NEAAs), 10 % foetal bovine serum and 1 % antibiotic-antimycotic solution at 23 °C in a humidified atmosphere with 5 % CO2.
(§2) All experiments were repeated three times.
On the technique in general: Formazan colour is commonly taken as a measure of viable cells.

The next data set deals with BF-2 cells. The data set is described as above. It is filed as cell-based, bluegill. To be noted: fish cells. How it is done:
as §1, §2

For another data set, the system named is U937. Details: method as in PMID 12697374. To be noted: U937 leukaemia; read-out: IC50 of betulin; cited from earlier work.
The nature of data set [2]: Solubility of betulin in DMSO. It is filed as physicochemical. The settings on record: organic solvent or mixture, thermodynamic from solid, room temperature, read-out: maximum solubility of betulin in DMSO. How it is done: We were able to dissolve 5000 µg of betulin in 1 mL of DMSO, although it required heating, and the solution remained unstable. After mixing with the cell culture medium, the solution immediately became slightly turbid.
A stock solution of betulin was prepared in DMSO at a concentration of 2500 µg/mL, and working solutions were prepared in cell maintenance media (serum-free) at final concentrations of 0 (control cells), 0.244, 0.488, 0.976, 1.95, 3.9, 7.8, 15.625 and 31.25 µg/mL immediately before use in cell culture.

In data set [3] the test system is SW707 (colorectal adenocarcinoma). Also noted: method as in PMID 23595090. The settings on record: SW707, SRB assay; cited from earlier work. (In general: Sulforhodamine B stains cellular protein and so reports cell mass.)
In data set [4] the test system is NIH/3T3 cells. The experiment in a line: LDH leakage assay (cellular membrane integrity), murine fibroblasts. It is filed as cell-based, mouse. To be noted: NIH/3T3, 24 h. The method, then: as §2
The LDH assay measures leakage of the stable cytosolic enzyme lactate dehydrogenase into the culture medium, which is an indicator of irreversible cell membrane damage and cell death.
The LDH assay was performed using a commercially available kit (TOX7) (Sigma-Aldrich, Poland) according to the manufacturer’s protocol. The full description of the test procedure was also reported previously. The results obtained are reported as the percentage of LDH leakage to the culture media in control (nontreated) cells.
A general note: LDH leaks from cells whose membrane has failed.

Data set [5] has as its system human lung fibroblasts (WI 38). Also noted: method as in PMID 12697374. The settings on record: WI 38, trypan blue exclusion, 72 h, cited from earlier work.
A further data set has as its system A375 (melanoma). Also noted: method as in PMID 22627971, PMID 23379693. The settings on record: A375, 20 µM; cited from earlier work.
The next data set deals with HL60. Details: method as in PMID 12697374. To be noted: HL60 leukaemia; read-out: IC50 of betulin; cited from earlier work.
For another data set, the system named is porcine chondrocytes. The settings on record: cited from earlier work.
In another data set the test system is CCRF/CEM (leukaemia). Also noted: method as in PMID 23595090. The settings on record: MTT assay; cited from earlier work.
Data set [6] is described as follows: MTT assay (mitochondrial activity), murine fibroblasts. The settings on record: mouse. The method, then:
(§3) NIH/3T3 (ATCC CRL-1658) mouse embryonic fibroblasts were grown in Dulbecco’s modified Eagle’s medium (DMEM) supplemented with 2 mM glutamine, 10 % foetal bovine serum and a 1 % antibiotic-antimycotic solution at 37 °C in a humidified atmosphere with 5 % CO2.
(§4) NIH/3T3 and BF-2 cells were seeded in 96-well plates at a density of 1 × 10^4 or 2 × 10^4 cells per well, respectively. After 24 h of incubation at an appropriate temperature, cells were exposed to betulin at the concentrations mentioned above for 24, 48 and 72 h. Control (untreated) cells served as the negative control and a reference point. Triton X-100 treated cells served as the positive internal control in MTT, NRU and LDH assays. Due to the specific character of SRB assay, there was no positive control in this test. After 24, 48 and 72 h of treatment, the four different cytotoxicity assays were performed. All experiments were repeated three times.
(§5) The MTT assay is used to estimate mitochondrial damage, since it determines the activity of mitochondrial enzymes. These enzymes reduce the water-soluble tetrazolium dye MTT to insoluble purple formazan, which accumulates inside viable cells.
(§6) The MTT assay was conducted using the protocol described by Mosmann, with some modifications described in our previous article.
(§7) The MTT assay was used to determine the cytotoxicity of both betulin and the vehicle (DMSO).
(§8) All experiments were repeated three times. […] Statistical analyses were performed using GraphPad Prism software (GraphPad Software, USA). Data were subjected to one-way analysis of variance (ANOVA). Dunnett’s posttest was used to determine differences between control and betulin-exposed cells at the same time points. Differences between the two cell lines at the same time points were determined using Student’s t-test. The 50 % cytotoxic concentrations (CC50, defined as the concentration of the compound that reduced cell viability by 50 %) were calculated using the Quest Graph™ ED50 Calculator (AAT Bioquest, Inc.).

In data set [7] the test system is NIH/3T3 cells. The data set is described as above. The method, then: as §3, §4, §5, §6, §7, §8
The test system of another data set is A-549. Also noted: method as in PMID 16787747. The settings on record: read-out: IC50 of betulin; cited from earlier work.
Another data set relates to Bcap-37 (breast cancer). Also noted: method as in PMID 22627971, PMID 23379693. The settings on record: Bcap-37, 20 µM; cited from earlier work.
Data set [8] deals with B16 cells (B164A5 and B16F10). Also noted: method as in PMID 25756279. The settings on record: B16 melanoma cells; cited from earlier work.
Data set [9] relates to veterinary pathogens, both bacterial and viral. In words: Antimicrobial activity towards veterinary pathogens (data not shown).

Molecules are shown by their SMILES. Converted amounts (≈) assume the structure as drawn.

With `C=C(C)[C@@H]1CC[C@]2(CO)CC[C@]3(C)[C@H](CC[C@@H]4[C@@]5(C)CC[C@H](O)C(C)(C)[C@@H]5CC[C@]43C)[C@@H]12` [betulin, Betulin], the CC50 at 24 h worked out at 3.39 ± 0.903 mg/L (≈ 7.67 µM) in data set [1] (BF-2, 24 h, read-out: CC50 betulin MTT 24 h) and 1.532 ± 0.005 mg/L (≈ 3.46 µM) in data set [6]. For the same compound, the CC50 at 48 h in data set [1] (BF-2, 48 h, read-out: CC50 betulin MTT 48 h) was determined as 2.75 ± 1.05 mg/L (≈ 6.21 µM); in data set [6] it was 1.58 ± 0.64 mg/L (≈ 3.58 µM). Moreover, the CC50 at 72 h in data set [1] (BF-2, 72 h, read-out: CC50 betulin MTT 72 h) was determined as 3.02 ± 1.03 mg/L (≈ 6.82 µM); in data set [6], 1.85 ± 0.647 mg/L (≈ 4.19 µM). For the same compound, the “betulin concentration causing statistically significant decrease in viability (MTT)” value was ≥ 1.95 µg/mL in the data set on BF-2 cells (24 h) and ≥ 1.95 µg/mL in the data set with NIH/3T3 cells [7] (mouse cells, 24 h, threshold persisted until termination of the experiment). Besides, the “lower betulin concentration causing considerable decrease in viability (MTT)” value in the data set on BF-2 cells (starting at 48 h of incubation) came out at 0.976 µg/mL. Further, the IC50 (as a rule, the midpoint of a concentration-inhibition curve) in the data set with U937 is 14.4 µM; in data set [5] (read-out: IC50 of betulin) it was 15.2 µM; with HL60, 14.7 µM; in the data set with A-549 it was 3.8 µM. In addition, the solubility – broadly, the concentration that dissolves in the medium under given conditions – in data set [2] amounted to 2.5 mg/mL (≈ 5650 µM). Further, the IC50 of betulin in data set [3] is 22.9 mg/L; with CCRF/CEM (leukaemia), 10.9 mg/L. For the same compound, the “betulin concentration inducing substantial LDH leakage” value in the data set on NIH/3T3 cells [4] was 7.8 µg/mL. The “IC50 of betulin, converted” value in [5] (conversion of µM value) was “ca. 6.75 µg/ml”. Further, the “inhibitory activity of betulin” value in the data set with A375 (melanoma) was 33.9%; with Bcap-37 (breast cancer) it was 53.2%. Moreover, the “betulin concentration causing considerable decrease in viability (MTT)” value in the data set with porcine chondrocytes is 0.02 µg/mL. For the same compound, the “decrease in cell viability in the MTT assay” value in the data set with NIH/3T3 cells [7] (NIH/3T3, betulin 7.8 µg/mL, 72 h) was “approximately 80%”. Moreover, the “betulin concentration from which almost complete lack of cell mitochondrial activity was observed (MTT)” value in data set [8] is ≥ 15 µM. The “antimicrobial activity towards tested veterinary pathogens” value in data set [9] is “did not confirm the antimicrobial activity”.
